Legend:
[1] = DRUGMATRIX: Serotonin (5-Hydroxytryptamine) 5-HT3 radioligand binding (ligand: [3H] GR-65630); type: cell membranes, Membrane; conditions: hek293; Not Active = under 50% inhibition at 10 µM
[2] = DRUGMATRIX: Purinergic P2X radioligand binding (ligand: [3H] alpha, beta-Methylene-ATP); type: cell membranes, Oryctolagus cuniculus, New Zealand albino, Urinary bladder, Membrane; conditions: Not Active = under 50% inhibition at 10 µM
[3] = target: T1, Nitric oxide synthase, inducible (Mus musculus, UniProt P29477); design: species or system Escherichia coli;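 further: inhibition of iNOS enzyme activity measured with L-arginine as substrate; in other assays of this panel Not Active means under 50% inhibition at 10 µM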
T1 sequence (P29477 whole entry): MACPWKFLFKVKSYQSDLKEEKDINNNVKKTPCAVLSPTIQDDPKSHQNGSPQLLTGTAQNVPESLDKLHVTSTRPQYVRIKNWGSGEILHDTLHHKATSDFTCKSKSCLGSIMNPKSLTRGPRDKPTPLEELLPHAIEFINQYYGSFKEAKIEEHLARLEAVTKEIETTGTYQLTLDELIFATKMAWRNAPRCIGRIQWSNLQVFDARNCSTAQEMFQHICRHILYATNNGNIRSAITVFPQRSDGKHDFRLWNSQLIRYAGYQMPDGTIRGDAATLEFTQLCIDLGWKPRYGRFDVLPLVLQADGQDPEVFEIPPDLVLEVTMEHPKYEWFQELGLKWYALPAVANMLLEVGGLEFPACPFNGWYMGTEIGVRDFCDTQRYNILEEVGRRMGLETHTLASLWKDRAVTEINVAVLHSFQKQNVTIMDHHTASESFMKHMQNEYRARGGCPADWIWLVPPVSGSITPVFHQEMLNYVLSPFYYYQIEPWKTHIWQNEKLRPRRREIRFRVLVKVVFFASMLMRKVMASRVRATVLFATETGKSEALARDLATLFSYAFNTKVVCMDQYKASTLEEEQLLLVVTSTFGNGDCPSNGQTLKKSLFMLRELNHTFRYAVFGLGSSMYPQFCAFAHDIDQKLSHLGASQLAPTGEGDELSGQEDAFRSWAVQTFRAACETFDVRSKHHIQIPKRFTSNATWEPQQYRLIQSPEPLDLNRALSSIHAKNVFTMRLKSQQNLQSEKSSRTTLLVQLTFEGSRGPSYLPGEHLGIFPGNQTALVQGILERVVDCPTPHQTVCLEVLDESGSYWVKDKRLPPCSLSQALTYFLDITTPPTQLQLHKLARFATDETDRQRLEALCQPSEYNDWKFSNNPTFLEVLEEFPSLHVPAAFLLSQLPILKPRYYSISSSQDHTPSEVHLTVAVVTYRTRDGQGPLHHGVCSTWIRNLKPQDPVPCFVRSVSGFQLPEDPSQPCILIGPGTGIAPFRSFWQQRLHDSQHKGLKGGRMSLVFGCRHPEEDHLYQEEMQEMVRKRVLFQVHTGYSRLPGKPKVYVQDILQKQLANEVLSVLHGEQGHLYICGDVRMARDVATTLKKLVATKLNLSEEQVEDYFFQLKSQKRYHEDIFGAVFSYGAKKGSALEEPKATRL

[4] = DRUGMATRIX: GABAA, Muscimol, Central radioligand binding (ligand: [3H] Muscimol); type: cell membranes, Rattus norvegicus, Wistar, Brain, Membrane; conditions: Not Active = under 50% inhibition at 10 µM
[5] = target: T2, Muscarinic acetylcholine receptor M5 (Homo sapiens, UniProt P08912); type: cell membranes, Membrane; conditions: cho-k1; further: in other assays of this panel Not Active means under 50% inhibition at 10 µM
T2 sequence (P08912 whole entry): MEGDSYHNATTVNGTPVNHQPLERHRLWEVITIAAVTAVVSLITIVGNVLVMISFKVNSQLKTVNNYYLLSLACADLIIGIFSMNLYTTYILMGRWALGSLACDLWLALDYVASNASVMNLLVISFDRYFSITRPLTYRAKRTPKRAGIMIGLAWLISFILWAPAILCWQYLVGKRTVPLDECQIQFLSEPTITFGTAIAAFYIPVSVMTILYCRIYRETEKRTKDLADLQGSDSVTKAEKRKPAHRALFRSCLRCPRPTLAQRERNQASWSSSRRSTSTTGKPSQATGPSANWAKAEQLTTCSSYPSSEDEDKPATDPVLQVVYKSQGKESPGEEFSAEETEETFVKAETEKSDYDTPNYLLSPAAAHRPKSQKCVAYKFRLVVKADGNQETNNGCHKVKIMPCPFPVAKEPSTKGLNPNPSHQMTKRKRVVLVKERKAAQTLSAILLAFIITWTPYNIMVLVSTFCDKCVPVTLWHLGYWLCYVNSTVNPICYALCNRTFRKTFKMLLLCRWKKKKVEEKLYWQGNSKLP

[6] = target: T3, B2 bradykinin receptor (Homo sapiens, UniProt P30411); type: cell membranes, Membrane; conditions: chem-1; further: in other assays of this panel Not Active means under 50% inhibition at 10 µM
T3 sequence (P30411 whole entry): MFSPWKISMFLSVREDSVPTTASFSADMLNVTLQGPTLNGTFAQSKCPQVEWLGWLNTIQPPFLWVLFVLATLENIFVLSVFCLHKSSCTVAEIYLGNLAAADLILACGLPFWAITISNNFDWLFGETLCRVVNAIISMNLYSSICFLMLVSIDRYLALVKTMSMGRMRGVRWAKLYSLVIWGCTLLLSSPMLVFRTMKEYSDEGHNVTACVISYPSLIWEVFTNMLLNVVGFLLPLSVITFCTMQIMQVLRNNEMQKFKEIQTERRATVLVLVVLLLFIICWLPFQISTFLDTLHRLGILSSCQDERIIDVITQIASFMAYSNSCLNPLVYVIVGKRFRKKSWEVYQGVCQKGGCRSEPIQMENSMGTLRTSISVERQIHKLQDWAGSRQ

[7] = target: Acetylcholinesterase (Homo sapiens, UniProt P22303); assay: DRUGMATRIX: Acetylcholinesterase enzyme inhibition (substrate: acetylthiocholine); type: cell-based, HEK293; conditions: hek293; Not Active = under 50% inhibition at 10 µM
Acetylcholinesterase, sequence (P22303 whole entry): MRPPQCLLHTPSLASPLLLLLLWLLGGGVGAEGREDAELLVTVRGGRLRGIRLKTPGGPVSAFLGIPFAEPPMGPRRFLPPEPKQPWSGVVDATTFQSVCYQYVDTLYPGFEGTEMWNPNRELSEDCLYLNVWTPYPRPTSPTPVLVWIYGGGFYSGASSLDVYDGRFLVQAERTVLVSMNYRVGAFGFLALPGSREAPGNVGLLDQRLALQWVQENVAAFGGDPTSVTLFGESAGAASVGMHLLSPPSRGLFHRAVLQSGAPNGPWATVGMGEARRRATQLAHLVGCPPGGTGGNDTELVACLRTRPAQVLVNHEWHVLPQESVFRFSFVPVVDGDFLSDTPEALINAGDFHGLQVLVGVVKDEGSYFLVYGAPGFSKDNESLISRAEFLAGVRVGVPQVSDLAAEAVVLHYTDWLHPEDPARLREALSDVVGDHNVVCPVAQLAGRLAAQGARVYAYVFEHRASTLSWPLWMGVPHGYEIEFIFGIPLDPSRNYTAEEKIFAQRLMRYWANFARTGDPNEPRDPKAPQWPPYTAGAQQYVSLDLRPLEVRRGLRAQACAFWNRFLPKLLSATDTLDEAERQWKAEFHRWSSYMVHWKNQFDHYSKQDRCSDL

N[C@@H](Cc1ccc(F)cc1)C(=O)O
Not Active: IC50 [1] | Ki [1] | IC50 [2] | Ki [2] | IC50 [3] | IC50 [4] | Ki [4] | IC50 [5] | IC50 [6] | IC50 [7]

C[C@@H]1CC[C@H]2[C@@H](C)C(=O)O[C@@H]3O[C@@]4(C)CC[C@@H]1[C@]32OO4 [ARTEMISININ]
Not Active: IC50 [1] | Ki [1] | IC50 [2] | Ki [2] | IC50 [3] | IC50 [4] | Ki [4] | IC50 [5] | IC50 [6] | IC50 [7]

COc1cc(CNC(=O)CCCC/C=C/C(C)C)ccc1O [CAPSAICIN]
Not Active: IC50 [1] | Ki [1] | IC50 [2] | Ki [2] | IC50 [3] | IC50 [4] | Ki [4] | IC50 [5] | IC50 [6] | IC50 [7]

CCC[C@@H]1C[C@@H](C(=O)N[C@@H]([C@H]2O[C@H](SC)[C@H](O)[C@@H](O)[C@H]2O)[C@H](C)Cl)N(C)C1 [CLINDAMYCIN]
Not Active: IC50 [1] | Ki [1] | IC50 [2] | Ki [2] | IC50 [3] | IC50 [4] | Ki [4] | IC50 [5] | IC50 [6] | IC50 [7]

CN1C(=O)CN=C(c2ccccc2)c2cc(Cl)ccc21 [DIAZEPAM]
Not Active: IC50 [1] | Ki [1] | IC50 [2] | Ki [2] | IC50 [3] | IC50 [4] | Ki [4] | IC50 [5] | IC50 [6] | IC50 [7]

CCOC(=O)C1=C(C)NC(C)=C(C(=O)OC)C1c1cccc(Cl)c1Cl (centres undefined) [FELODIPINE]
Not Active: IC50 [1] | Ki [1] | IC50 [2] | Ki [2] | IC50 [3] | IC50 [4] | Ki [4] | IC50 [5] | IC50 [6] | IC50 [7]

Cc1cn[nH]c1 [FOMEPIZOLE]
Not Active: IC50 [1] | Ki [1] | IC50 [2] | Ki [2] | IC50 [3] | IC50 [4] | Ki [4] | IC50 [5] | IC50 [6] | IC50 [7]

Cc1cnc(C(=O)NCCc2ccc(S(=O)(=O)NC(=O)NC3CCCCC3)cc2)cn1 [GLIPIZIDE]
Not Active: IC50 [1] | Ki [1] | IC50 [2] | Ki [2] | IC50 [4] | Ki [4] | IC50 [5] | IC50 [6] | IC50 [7]

COc1ccccc1OCC(O)CO (centres undefined) [GUAIFENESIN]
Not Active: IC50 [1] | Ki [1] | IC50 [2] | Ki [2] | IC50 [3] | IC50 [4] | Ki [4] | IC50 [5] | IC50 [6] | IC50 [7]

C/C=C\c1ccc(O)c(OC)c1 [ISOEUGENOL]
Not Active: IC50 [1] | Ki [1] | IC50 [2] | Ki [2] | IC50 [3] | IC50 [4] | Ki [4] | IC50 [5] | IC50 [6] | IC50 [7]

NC[C@H]1O[C@H](O[C@H]2[C@H](O)[C@@H](O[C@H]3O[C@H](CO)[C@@H](O)[C@H](N)[C@H]3O)[C@H](N)C[C@@H]2N)[C@H](O)[C@@H](O)[C@@H]1O [KANAMYCIN]
Not Active: IC50 [1] | Ki [1] | IC50 [2] | Ki [2] | IC50 [3] | IC50 [4] | Ki [4] | IC50 [5] | IC50 [6] | IC50 [7]

COc1ccc2cc(CCC(C)=O)ccc2c1 [NABUMETONE]
Not Active: IC50 [1] | Ki [1] | IC50 [2] | Ki [2] | IC50 [3] | IC50 [4] | Ki [4] | IC50 [5] | IC50 [6] | IC50 [7]

OCCN1CCN(CCCN2c3ccccc3Sc3ccc(Cl)cc32)CC1 [PERPHENAZINE]
Not Active: IC50 [1] | Ki [1] | IC50 [2] | Ki [2] | IC50 [3] | IC50 [4] | Ki [4] | IC50 [5] | IC50 [6] | IC50 [7]
